Here are results for 18 compounds from US11827628B2, “Compositions and methods for inhibition of the JAK pathway” (Rigel Pharmaceuticals, Inc., priority 2005, dated 2023).

Each structure is given as a SMILES string. pIC50: −log10 of the molar value.

As usually defined, the pIC50 is −log10 of the IC50, conventionally taken in molar units.

The assay has as its system up-regulation of ICAM-1 (CD54) by IFNγ in A549 lung epithelial cells. Briefly: A549 Epithelial Line Stimulated with IFNγ (ICAM-1 surface expression, FACS). The format is cell-based, human. As to conditions: Homo sapiens, A549, A549 cells stimulated with IFNγ, ICAM-1 expression by FACS; read-out: IC50, Example 43. The source says:
The activity of the compounds of the invention may additionally be characterized by assaying the effect of the 2,4-substituted pyrimidinediamine compounds described herein on A549 lung epithelial cells and U937 cells. A549 lung epithelial cells and U937 cells up-regulate ICAM-1 (CD54) surface expression in response to a variety of different stimuli. Therefore, using ICAM-1 expression as readout, test compound effects on different signaling pathways can be assessed in the same cell type. Stimulation with IL-1β through the IL-1β receptor activates the TRAF6/NFκB pathway resulting in up-regulation of ICAM-1. IFNγ induces ICAM-1 up-regulation through activation of the JAK1/JAK2 pathway. The up-regulation of ICAM-1 can be quantified by flow cytometry across a compound dose curve and EC50, values are calculated. An exemplary assays of this type are described in greater detail in Examples 43 and 44
A549 lung epithelial cells up-regulate ICAM-1 (CD54) surface expression in response to a variety of different stimuli. Therefore, using ICAM-1 expression as readout, compound effects on different signaling pathways can be assessed in the same cell type. IFNγ up-regulates ICAM-1 through activation of the JAK/Stat pathway. In this example, the up-regulation of ICAM-1 by IFNγ was assessed.
The A549 lung epithelial carcinoma cell line originated from the American Type Culture Collection. Routine culturing was with F12K media (Mediatech Inc., Lenexa, KS, Cat. No. 10-025-CV) with 10% fetal bovine serum, 100 I.U. penicillin and […] streptomycin (complete F12k media). Cells were incubated in a humidified atmosphere of 5% CO2 at 37° C. Prior to use in the assay, A549 cells were washed with PBS and trypsinized (Mediatech Inc., Cat. No. 25-052-CI) to lift the cells. The trypsin cell suspension was neutralized with complete F12K media and centrifuged to pellet the cells. The cell pellet was resuspended in complete F12K media at a concentration of 2.0×10^5/mL. Cells were seeded at 20,000 per well, 100 μL total volume, in a flat bottom tissue culture plate and allowed to adhere overnight.
On day two, A549 cells were pre-incubated with a 2,4-substituted pyrimidinediamine test compound or DMSO (control) (Sigma-Aldrich, St. Louis, MO, Catalog No. D2650) for 1 hour. The cells were then stimulated with IFNγ (75 ng/mL) (Peprotech Inc., Rocky Hill, NJ, Cat. No. 300-02) and allowed to incubate for 24 hours. The final test compound dose range was 30 μM to 14 nM in 200 μL F12K media containing 5% FBS, 0.3% DMSO.
On day three, the cell media was removed and the cells were washed with 200 μL PBS (phosphate buffered saline). Each well was trypsinized to dissociate the cells, then neutralized by addition of 200 μL complete F12K media. Cells were pelleted and stained with an APC conjugated mouse anti-human ICAM-1 (CD54) (BD Pharmingen, San Diego, CA, Catalog #559771) antibody for 20 minutes at 4° C. Cells were washed with ice cold FACS buffer (PBS+2% FBS) and surface ICAM-1 expression was analyzed by flow cytometry. Detection was performed using a BD LSR I System Flow Cytometer, purchased from BD Biosciences of San Jose, California Events were gated for live scatter and the geometric mean was calculated (Becton-Dickinson CellQuest software version 3.3, Franklin Lakes, NJ). Geometric means were plotted against the compound concentration to generate a dose response curve.
Background: A flow cytometer gives signals particle by particle.
As to `NS(=O)(=O)c1cccc(Nc2ncc(F)c(Nc3ccc(CCCO)cc3)n2)c1` [VI-86, N2-(3-Aminosulfonylphenyl)-5-fluoro-N4-[4-(3-hydroxypropyl)phenyl]-2,4-pyrimidinediamine], the pIC50 was 5.35.
The same measure for `NS(=O)(=O)c1ccc(Nc2ncc(F)c(Nc3ccc(CCCCO)cc3)n2)cc1` [VI-88, N2-(4-Aminosulfonylphenyl)-5-fluoro-N4-[4-(4-hydroxybutyl)phenyl]-2,4-pyrimidinediamine]: 4.61; for `NS(=O)(=O)c1cccc(Nc2ncc(F)c(Nc3ccc(CCCCO)cc3)n2)c1` [VI-89, N2-(3-Aminosulfonylphenyl)-5-fluoro-N4-[4-(4-hydroxybutyl)phenyl]-2,4-pyrimidinediamine]: 5.24.
With `NS(=O)(=O)c1cccc(Nc2ncc(F)c(Nc3ccc(CCCCF)cc3)n2)c1` [VI-92, N2-(3-Aminosulfonylphenyl)-5-fluoro-N4-[4-(4-fluorobutyl)phenyl]-2,4-pyrimidinediamine] the figure was 4.89; with `NS(=O)(=O)c1cc(Nc2ncc(F)c(Nc3ccc(O)cc3)n2)ccc1F` [VI-100, N2-(3-Aminosulfonyl-4-fluorophenyl)-5-fluoro-N4-(4-hydroxyphenyl)-2,4-pyrimidinediamine], 5.04; with `Cc1ccc(Nc2ncc(F)c(Nc3ccc(O)cc3)n2)cc1S(N)(=O)=O` [VI-102, N2-(3-Aminosulfonyl-4-methylphenyl)-5-fluoro-N4-[4-hydroxyphenyl]-2,4-pyrimidinediamine], 4.83.
The same measure for `COc1ccc(Nc2nc(Nc3ccc(N4CCN(C)CC4)c(S(N)(=O)=O)c3)ncc2F)cc1Cl` [VI-116, N2-[3-Aminosulfonyl-4-(4-methylpiperazine-1-yl)phenyl]-N4-(3-chloro-4-methoxyphenyl)-5-fluoro-2,4-pyrimidinediamine]: 5.09.
With `COc1ccc(Nc2nc(Nc3cccc(S(N)(=O)=O)c3)ncc2F)cn1` [VII-6, N2-(3-Aminosulfonylphenyl)-5-fluoro-N4-(2-methoxypyrid-5-yl)-2,4-pyrimidinediamine], the pIC50 was 4.63.
On to `COc1ccc(Nc2nc(Nc3ccc(C)c(S(N)(=O)=O)c3)ncc2F)nc1N` [VII-9, N2-(3-Aminosulfonyl-4-methylphenyl)-N4-[2-amino-3-methoxypyrid-6-yl]-5-fluoro-2,4-pyrimidinediamine], for which the pIC50 was 4.77.
With `Cc1ccc(Nc2ncc(C)c(Nc3ccc4c(c3)NC(=O)CO4)n2)cc1S(N)(=O)=O` [VII-30, N2-(3-Aminosulphonyl-4-methylphenyl)-5-methyl-N4-(3-oxo-benz[1,4]oxazin-6-yl)-2,4-pyrimidinediamine] the figure was 5.05.
Take `Cc1ccc(Nc2ncc(F)c(Nc3ccc4c(c3)NC(=O)CS4)n2)cc1S(N)(=O)=O` [VII-44, N2-(3-Aminosulphonyl-4-methyl-phenyl)-5-fluoro-N4-(3-oxo-4H-benzo[1,4]thiazin-6-yl)-2,4-pyrimidinediamine]: the pIC50 is 5.04.
For the compound `CN1C(=O)CSc2ccc(Nc3nc(Nc4cccc(S(N)(=O)=O)c4)ncc3F)cc21` [VII-49, N2-(3-Aminosulfonylphenyl)-5-fluoro-N4-(4-methyl-3-oxo-benz[1,4]thiazin-6-yl)-2,4-pyrimidinediamine], the negative-log IC50 (pIC50) was 5.51.
On to `Cc1ccc(Nc2ncc(F)c(Nc3ccc4oc(C#N)cc4c3)n2)cc1S(N)(=O)=O` [VII-53, N2-(3-Aminosulfonyl-4-methylphenyl)-N4-(2-cyanobenzofuran-5-yl)-5-fluoro-2,4-pyrimidinediamine], for which the pIC50 was 5.26.
Regarding `Cc1ccc(Nc2ncc(F)c(Nc3ccc4sccc4c3)n2)cc1S(N)(=O)=O` [VII-57, N2-(3-Aminosulfonyl-4-methylphenyl)-N4-(benzothiophen-5-yl)-5-fluoro-2,4-pyrimidinediamine], the negative logarithm of the IC50 (pIC50) was 4.97.
The same measure for `Cc1ccc(Nc2ncc(F)c(Nc3ccc4ncccc4c3)n2)cc1S(N)(=O)=O` [VII-69, N2-(3-Aminosulfonyl-4-methylphenyl)-5-fluoro-N4-(quinolin-6-yl)-2,4-pyrimidinediamine]: 5.12; for `NS(=O)(=O)c1cccc(Nc2ncc(F)c(Nc3ccc4ncccc4c3)n2)c1` [VII-70, N2-(3-Aminosulfonylphenyl)-5-fluoro-N4-(quinolin-6-yl)-2,4-pyrimidinediamine]: 5.19.
Take `Cc1ccc2cc(Nc3nc(Nc4ccc(C)c(S(N)(=O)=O)c4)ncc3F)ccc2n1` [VII-71, N2-(3-Aminosulfonyl-4-methylphenyl)-5-fluoro-N4-(2-methylquinolin-6-yl)-2,4-pyrimidinediamine]: the pIC50 was 5.26.
The same measure for `Cc1ccc2cc(Nc3nc(Nc4cccc(S(N)(=O)=O)c4)ncc3F)ccc2n1` [VII-72, N2-(3-Aminosulfonylphenyl)-5-fluoro-N4-(2-methylquinolin-6-yl)-2,4-pyrimidinediamine]: 5.00.
